Entries after “also recorded” stand apart in the source; their conditions may differ. Marks after values point to notes of the source that are not given here.
Tests used:
healthy subjects [1] = assay: Phase 1 study, MAD cohorts: serum lipid parameters by NMR LipoProfile; format: in vivo, human; conditions: Day 1 to Day 14
Method: (§1) Lipid parameters, including apolipoprotein B (apoB), were evaluated by NMR LipoProfile® (Labcorp, Burlington, NC. Plasma ApoC3 and ANGPTL3 were evaluated by ELISA (360biolabs, Melbourne, Australia). Peripheral RCT (reverse cholesterol transport) were evaluated by assessing changes in expression of ABCA1/ABCG1 in PBMCs, predose and 4 hours postdose on Days 1 and 14 (Gnomix, Bedford Park, Australia).
Methods. In a randomized, double-blind, placebo (PBO)-controlled Phase 1 study, healthy subjects (n=8/2 Compound 21/3 vs PBO/cohort) received single ascending doses (SAD) of Compound 21/3 (0.5, 2, 6, 12, or 20 mg) or multiple ascending doses (MAD) QD for 14 days (0.5, 2, 6, or 12 mg) while fed or 6 mg fasted. Safety, PK, serum lipid parameters by NMR LipoProfile®, and gene expression in PBMCs were evaluated.
Results. The proportion of subjects with adverse events (AEs) was 60% with PBO and 13-50% with Compound 21/3 in the SAD cohorts (n=50), and 40% and 13-88%, respectively, in the MAD cohorts (n=50). All AEs were mild except an unrelated, Grade 2 thrombophlebitis in a subject on Compound 21/3 2 mg. […] With fasted dosing, exposures were similar on Days 1 and 14 and ˜3-fold higher than with fed dosing. […] In FIG. 13A-13H, figures on graphs indicate median relative (%) change in predose NMR Lipoprofile® parameter from Day 1 to Day 14. […]

ABCA1/ABCG1 in PBMCs = assay: Phase 1 study, MAD cohorts: expression of ABCA1/ABCG1 in PBMCs (peripheral RCT); format: in vivo, human; conditions: healthy subjects, predose and 4 h postdose on Day 14
Method: as §1
In FIG. 14A to 14C, ApoC3 and ANGPTL3 measured 12 h postdose. RCT assessed predose and 4 h postdose on Day 14.

healthy subjects [2] = assay: Phase 1 study, MAD cohorts: safety and tolerability; format: in vivo, human; conditions: for Abdominal pain / Any TEAE / Back pain / Diarrhea / Grade ≥2 TEAE / Headache / Pruritis / Serious TEAE / TEAE leading to study drug discontuation / Treatment-related TEAE / subjects with mild (Grade 1), transient increase in serum ALT: MAD; for Abdominal pain / Any TEAE / Back pain / Diarrhea / Grade ≥2 TEAE / Headache / Pruritis / Serious TEAE / TEAE leading to study drug discontuation / Treatment-related TEAE: n = 8
Method: A double-blind, placebo-controlled, single- and multiple-ascending dose FIH Phase 1 study to evaluate the safety, tolerability, PK, and PD of Compound 21/3 in healthy adult subjects was performed. A total of up to 150 subjects were enrolled, including 100 subjects in Parts A and B, and up to 50 subjects in adaptive cohorts in Part C. Within each cohort, 10 subjects were randomized, including 8 subjects randomized to Compound 21/3 and 2 subjects to PTM (placebo-to-match). In single-dose cohorts in Parts A and in any Part C cohort evaluating a higher total daily dose than previously evaluated, safety and tolerability data collected through Day 2 from two sentinel subjects, one randomized to Compound 21/3 and one to PTM, were evaluated prior to dosing of the remaining subjects in each cohort.
An approximately even distribution of healthy male and non-pregnant, non-lactating female subjects 18 to 55 years of age, inclusive, were to be enrolled in the study. There were no significant medical conditions by history, physical examination, or laboratory evaluation. Subjects were not allowed to participate in more than one cohort of the study. Within each MAD cohort, attempts were made to enrich for >3 subjects with elevated TG and/or LDL-C. Following the completion of Screening and admission assessments, eligible subjects were to be enrolled on Day −1. Safety and tolerability assessments, including adverse event (AE) monitoring, laboratory tests, physical examinations, and ECG evaluations were performed throughout the study.
The severity of AEs was graded using the Common Terminology Criteria for Adverse Events version 5.0 (CTCAE v5.0).

[3] = system: humanized liver chimeric PXB mice; assay: Humanized liver chimeric PXB mouse model; format: in vivo; conditions: 1 mg/kg once daily oral, 8 days
Method: Data are shown as mean±SD. N=4-5 animals per group. *p≤0.05, **p≤0.01, ***p≤0.001, ****p≤0.0001 Mann-Whitney test.
Since features of cholesterol metabolism differ between rodents and humans, the humanized liver chimeric PXB® mouse model was utilized to further explore the effects of Compound 21/3 on lipid metabolism in a more relevant nonclinical model (Tateno, Yoshizane et al. 2004). Briefly, PXB mice were treated with either vehicle or Compound 21/3 (1 mg/kg once daily by oral gavage) for 8 days. The pharmacokinetics (PK) data from this study are presented herein. […] Specifically, Compound 21/3 reduced the expression of the cholesterol synthesis gene, HMGCR, as well as in genes that reduce the hepatic uptake of LDL-C (PCSK9, IDOL) and conversion of cholesterol to bile acids (CYP7A1). As expected, marked reductions in ANGPTL3 and DNL-associated genes (SREBP1C, ACACA, FASN, SCD1) were also observed.

N#Cc1cccc(C#N)c1-c1c(-c2cccc(-c3ccc(C(=O)NCC(=O)O)cc3Cl)c2)n(S(=O)(=O)c2ccc(C(F)F)cc2)c2ccc(F)cc12 [Compound 21/3]
HDL-C (healthy subjects [1]): not HDL-C
serum triglycerides, total and LDL-C, total and small LDL particles, TG/HDL-C ratio (healthy subjects [1]): Significant, dose-dependent reductions; also recorded: significant, dose-dependent improvements
peripheral RCT: expression of LXR target genes in PBMCs incl. ABCA1/ABCG1 (ABCA1/ABCG1 in PBMCs): does not impact; also recorded: did not impact
Abdominal pain (healthy subjects [2]; 0.5 mg, fed): 1 (13)
Any TEAE (healthy subjects [2]; 0.5 mg, fed): 7 (88)
Back pain (healthy subjects [2]; 0.5 mg, fed): 0 (0)
Diarrhea (healthy subjects [2]; 0.5 mg, fed): 2 (25)
Grade ≥2 TEAE (healthy subjects [2]; 0.5 mg, fed): 0 (0)
Headache (healthy subjects [2]; 0.5 mg, fed): 1 (13)
Pruritis (healthy subjects [2]; 0.5 mg, fed): 4 (50)
Serious TEAE (healthy subjects [2]; 0.5 mg, fed): 0 (0)
TEAE leading to study drug discontuation (healthy subjects [2]; 0.5 mg, fed): 0 (0)
Treatment-related TEAE (healthy subjects [2]; 0.5 mg, fed): 0 (0)
Abdominal pain (healthy subjects [2]; 2 mg, fed): 0 (0)
Any TEAE (healthy subjects [2]; 2 mg, fed): 3 (38)
Back pain (healthy subjects [2]; 2 mg, fed): 0 (0)
Diarrhea (healthy subjects [2]; 2 mg, fed): 0 (0)
Headache (healthy subjects [2]; 2 mg, fed): 0 (0)
Pruritis (healthy subjects [2]; 2 mg, fed): 0 (0)
Serious TEAE (healthy subjects [2]; 2 mg, fed): 0 (0)
TEAE leading to study drug discontuation (healthy subjects [2]; 2 mg, fed): 0 (0)
Treatment-related TEAE (healthy subjects [2]; 2 mg, fed): 0 (0)
Grade ≥2 TEAE (healthy subjects [2]; 2 mg, fed, Grade 2 thrombophlebitis considered unrelated to study treatment): 1 (13)*
Abdominal pain (healthy subjects [2]; 6 mg (fasted)): 1 (13)
Any TEAE (healthy subjects [2]; 6 mg (fasted)): 1 (13)
Back pain (healthy subjects [2]; 6 mg (fasted)): 0 (0)
Diarrhea (healthy subjects [2]; 6 mg (fasted)): 0 (0)
Grade ≥2 TEAE (healthy subjects [2]; 6 mg (fasted)): 0 (0)
Headache (healthy subjects [2]; 6 mg (fasted)): 0 (0)
Pruritis (healthy subjects [2]; 6 mg (fasted)): 0 (0)
Serious TEAE (healthy subjects [2]; 6 mg (fasted)): 0 (0)
TEAE leading to study drug discontuation (healthy subjects [2]; 6 mg (fasted)): 0 (0)
Treatment-related TEAE (healthy subjects [2]; 6 mg (fasted)): 0 (0)
Abdominal pain (healthy subjects [2]; 6 mg, fed): 1 (13)
Any TEAE (healthy subjects [2]; 6 mg, fed): 5 (63)
Back pain (healthy subjects [2]; 6 mg, fed): 2 (25)
Diarrhea (healthy subjects [2]; 6 mg, fed): 1 (13)
Grade ≥2 TEAE (healthy subjects [2]; 6 mg, fed): 0 (0)
Headache (healthy subjects [2]; 6 mg, fed): 1 (13)
Pruritis (healthy subjects [2]; 6 mg, fed): 0 (0)
Serious TEAE (healthy subjects [2]; 6 mg, fed): 0 (0)
TEAE leading to study drug discontuation (healthy subjects [2]; 6 mg, fed): 0 (0)
Treatment-related TEAE (healthy subjects [2]; 6 mg, fed): 1 (13)
Abdominal pain (healthy subjects [2]; 12 mg, fed): 1 (13)
Any TEAE (healthy subjects [2]; 12 mg, fed): 3 (38)
Back pain (healthy subjects [2]; 12 mg, fed): 0 (0)
Diarrhea (healthy subjects [2]; 12 mg, fed): 2 (25)
Grade ≥2 TEAE (healthy subjects [2]; 12 mg, fed): 0 (0)
Headache (healthy subjects [2]; 12 mg, fed): 2 (25)
Pruritis (healthy subjects [2]; 12 mg, fed): 0 (0)
Serious TEAE (healthy subjects [2]; 12 mg, fed): 0 (0)
TEAE leading to study drug discontuation (healthy subjects [2]; 12 mg, fed): 0 (0)
Treatment-related TEAE (healthy subjects [2]; 12 mg, fed): 2 (25)
tolerability (healthy subjects [2]; healthy subjects, 0.5, 2, 6, and 12 mg for 14 days): well tolerated
subjects with treatment-related TEAEs (all mild, gastrointestinal) (healthy subjects [2]; healthy subjects, MAD cohorts): 3 subjects
proportion of subjects with adverse events (AEs) (healthy subjects [2]; healthy subjects, MAD cohorts, range over dose groups): 13-88%
subjects with mild (Grade 1), transient increase in serum ALT (healthy subjects [2]; healthy subjects, 6 mg group, fed): one
subjects with mild (Grade 1), transient increase in serum ALT (healthy subjects [2]; healthy subjects, 12 mg group, fed): 4 subjects
safety and tolerability (healthy subjects [2]; healthy subjects, single and multiple daily doses up to 20 mg/d for 14 days): safe and well tolerated
hepatic TG and TC content [3]: trended to reduce
hepatic expression of genes involved in the metabolism of cholesterol and TG ([3]; relative to vehicle): significantly reduced
